These results are taken from PubChem BioAssay (NCI).

Molecules are shown by their SMILES.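 Where inhibition never reached the appropriate level, the endpoint shown equals the highest concentration tested. Otherwise, values were interpolated linearly from a five-concentration, 48-hour dose response in 96-well plates. GI50 is the concentration that inhibits growth by half. At the TGI there is no net growth.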

Among the test systems are NCI/ADR-RES ovarian; DU-145 prostate; MDA-N; HS 578T breast; MALME-3M melanoma; MDA-MB-231 breast; NCI-H522 lung; HCT-116 colon; NCI-H226 lung; T-47D breast.
Assay in all cases: growth of human tumour cells (NCI), 48 h

On to `COC(C)(C)OCCN1CCN(CCN2C3=C(C=C(C(C)=O)C3)Sc3ccccc32)CC1`, for which the TGI with NCI/ADR-RES ovarian came out at 50.2 µM; with DU-145 prostate it was 68.8 µM; in the assay with MDA-N, 36.5 µM; with HS 578T breast, 36.5 µM; in the assay with MALME-3M melanoma, 36.6 µM; in the assay on MDA-MB-231 breast it was 52.4 µM. For the same compound, the TGI in the assay on NCI-H522 lung was 33.2 µM; with HCT-116 colon, 33.6 µM; with NCI-H226 lung, 65.6 µM; in the assay with T-47D breast it was more than 100 µM.

In the case of `Cc1cc2c(cc1C(=O)c1ccc(N)cc1)OCO2`, the TGI with NCI/ADR-RES ovarian was 87.7 µM; with DU-145 prostate it was more than 100 µM; with MDA-N, 35.1 µM; with HS 578T breast it was more than 100 µM; in the assay with MALME-3M melanoma it was more than 100 µM; in the assay with MDA-MB-231 breast, more than 100 µM. The TGI in the assay on NCI-H522 lung is 54.4 µM; in the assay on HCT-116 colon it was more than 100 µM; in the assay on T-47D breast it was more than 100 µM.

Turning to `CC(C)(C)[Si](C)(C)Oc1ccc(C2CNC(=O)C23CCC(=O)N3Cc2ccccc2)cc1` (configuration not stated), the TGI in the assay on NCI/ADR-RES ovarian was 26.7 µM; with DU-145 prostate, 38.7 µM; with MDA-N, 27.3 µM; with HS 578T breast, 21.5 µM; in the assay with MALME-3M melanoma it was 48.4 µM; in the assay with NCI-H522 lung, 29.2 µM. Besides, the TGI was more than 100 µM in the assay on HCT-116 colon, 44.8 µM with NCI-H226 lung and 63 µM in the assay with T-47D breast.

As for `Oc1cn(-c2ccc(Cl)cc2)nc1-c1n[nH]c(=S)n1-c1ccccc1`, the TGI in the assay with NCI/ADR-RES ovarian was 14.1 µM; in the assay with DU-145 prostate it was more than 100 µM; with HS 578T breast, 55.1 µM; in the assay on MALME-3M melanoma, 62.9 µM; with MDA-MB-231 breast it was more than 100 µM; in the assay on NCI-H522 lung, 19.5 µM. Moreover, the TGI is 18.7 µM in the assay on HCT-116 colon, 59.8 µM in the assay with NCI-H226 lung and more than 100 µM with T-47D breast.

Turning to `C[C@H]1C(=O)O[C@@H]2CCN3CC=C(COC(=O)[C@](C)(O)[C@@]1(C)O)[C@H]23`, the TGI with NCI/ADR-RES ovarian, in the assay on DU-145 prostate, in the assay with MDA-N, in the assay on HS 578T breast, with MDA-MB-231 breast and in the assay on NCI-H522 lung was more than 100 µM each time. Further, the TGI in the assay on HCT-116 colon, in the assay on NCI-H226 lung and in the assay on T-47D breast was more than 100 µM in each case.

For `Cc1c2cccc-2c(OCCO)cc2c3ccccc3n(C)c12`, the TGI in the assay with NCI/ADR-RES ovarian was more than 100 µM; in the assay with DU-145 prostate, 20.6 µM; in the assay with MDA-N it was 16.1 µM; in the assay with HS 578T breast, 7.15 µM; with MALME-3M melanoma, 17 µM; with MDA-MB-231 breast, 10 µM. For the same compound, the TGI in the assay with NCI-H522 lung was 4.8 µM; in the assay on HCT-116 colon, 12.8 µM; with NCI-H226 lung, 24.2 µM; in the assay on T-47D breast, more than 100 µM.

Turning to `CN(C)C(=O)/C=C/c1c[nH]c(=O)[nH]c1=O`, the TGI in the assay on NCI/ADR-RES ovarian, in the assay with MALME-3M melanoma, with NCI-H522 lung, in the assay with HCT-116 colon and with NCI-H226 lung was more than 500 µM in each case.

`CC(=O)NNc1nc(-c2ccc([N+](=O)[O-])cc2)c(C#N)c(=O)n1C`: the TGI with NCI/ADR-RES ovarian was more than 100 µM; in the assay with DU-145 prostate, more than 100 µM; in the assay on MDA-N, more than 100 µM; with HS 578T breast, 99.5 µM; with MALME-3M melanoma, more than 100 µM; in the assay with MDA-MB-231 breast it was 34.2 µM. For the same compound, the TGI in the assay on NCI-H522 lung is 45.6 µM; in the assay on HCT-116 colon, 94.2 µM; in the assay on T-47D breast it was more than 100 µM.

`NCCCn1c2c(c3ccc([N+](=O)[O-])cc3c1=O)C(=O)c1ccccc1-2`: the GI50 is 0.427 µM in the assay on NCI/ADR-RES ovarian; 0.0455 µM in the assay with DU-145 prostate; 0.657 µM in the assay on HS 578T breast; 0.136 µM with MDA-MB-231 breast; 0.462 µM in the assay with NCI-H522 lung; 0.0205 µM in the assay on HCT-116 colon. For the same compound, the GI50 with NCI-H226 lung is 0.0151 µM. Also, the TGI was 2.41 µM in the assay on NCI/ADR-RES ovarian; 0.474 µM with DU-145 prostate; 2.29 µM in the assay on HS 578T breast; 0.472 µM in the assay on MDA-MB-231 breast; more than 50 µM in the assay on NCI-H522 lung; 0.118 µM in the assay on NCI-H226 lung.

On to `COc1ccc2c(c1)CCCN2CCCCCCCCCCN(CCC(C)C)CCC(C)C`, for which the TGI worked out at 28.1 µM in the assay with MALME-3M melanoma, 5.68 µM with NCI-H522 lung and 31.3 µM in the assay on NCI-H226 lung.

Take `O=C(Nc1ccc([N+](=O)[O-])cc1[N+](=O)[O-])C(=O)C(C(=O)c1ccc2ccccc2c1)C1OC(=O)c2ccccc21` (configuration not stated): the TGI in the assay on NCI-H522 lung is 22.8 µM; in the assay on HCT-116 colon it was 32 µM; with NCI-H226 lung, 9.48 µM.

Consider `Nc1n[nH]c(=O)c2c1c(I)cn2C1OC(CO)C(O)C1O` (configuration not stated), for which the TGI is 17.3 µM in the assay on MALME-3M melanoma, more than 100 µM in the assay on HCT-116 colon and 7.6 µM in the assay on NCI-H226 lung.

On to `CN(C)CCNC(=O)c1cccc2ccc(-c3ccc(F)cc3)nc12`, for which the TGI in the assay with NCI/ADR-RES ovarian worked out at 18.4 µM; with MALME-3M melanoma, 13.6 µM; with NCI-H522 lung, 16.9 µM; with HCT-116 colon it was 13.3 µM; in the assay with NCI-H226 lung, 11.6 µM.

Take `CC(Oc1ccc(Cl)cc1Cl)C(=O)NN1C(=O)CSC1c1ccccc1` (configuration not stated): the TGI with NCI/ADR-RES ovarian, in the assay on DU-145 prostate, with MDA-N, in the assay on HS 578T breast, in the assay on MALME-3M melanoma and in the assay on MDA-MB-231 breast was more than 100 µM in each case. Further, the TGI with NCI-H522 lung is more than 100 µM; in the assay with HCT-116 colon it was more than 100 µM; in the assay with NCI-H226 lung it was 64.1 µM; in the assay with T-47D breast, more than 100 µM.
